The values that follow come from publication PMC8264259, “A Novel Ruthenium(II) Complex With Lapachol Induces G2/M Phase Arrest Through Aurora-B Kinase Down-Regulation and ROS-Mediated Apoptosis in Human Prostate Adenocarcinoma Cells” (Frontiers in Oncology, 2021).

The subject of one data set is DU-145 cells. As to the kind of experiment: Annexin-V/PI staining assay (flow cytometry). Format: cell-based, human. To be noted: for population of apoptotic cells: 24 h, control group 5.9%. Here is the method: The measurement of cell death was performed by the guidelines of ([35]). Detection of apoptotic/necrotic cells was determined by flow cytometry using the Alexa Fluor® 488 Annexin V/PI (Thermo Fischer Scientific), and the analyses were performed according to the manufacturer’s instructions. […] DMSO (0.1% v/v) was used as the vehicle control. Following 24 h of incubation, the cells were collected with Accutase® (Gibco-Invitrogen®), washed with PBS and resuspended in 200 μl of cold annexin-binding buffer. Next, 10 μl of Alexa Fluor® was added to Annexin V (50 μl/ml) staining buffer, and the mixture was incubated in the dark at 4°C for 15 min. Previously, the analyses, 100 μl of PI (2 μg/ml) was added, and then, the fluorescence was measured by flow cytometry in a FACSCanto flow cytometer (BD Biosciences, USA) using the Diva software. Ten thousand events were evaluated per experiment, and cellular debris was omitted from the analysis.

In data set [1] the test system is HepG2 (human hepatocellular carcinoma). As to the kind of experiment: Alamar blue cytotoxicity assay, HepG2. Format: cell-based. Conditions: for IC50: HepG2, Alamar blue, 24-h incubation, mean ± S.E.M. An excerpt: (§1) Human lung carcinoma (A549, ATCC® CCL-185™), human hepatocellular carcinoma (HepG2, ATCC® HB-8065™), and human breast adenocarcinoma (MDA-MB-231, ATCC® HTB-26™) were obtained from American Type Cell Collection (ATCC). Human melanoma (A-375, BCRJ-0278), Human colorectal adenocarcinoma (Caco-2, BCRJ 0059), human prostate adenocarcinoma (DU-145, BCRJ-0078, and PC-3, BCRJ-0269), human mouth fibroblast (FGH, BCRJ-0089), and human prostate epithelial cells (PNT-2, BCRJ-0366) were obtained from Rio de Janeiro Cells Bank (BCRJ). The cells A549, A-375, Caco-2, DU-145, HepG2, MDA-MB-231, and FGH were cultured in Dulbecco’s Modified Eagle’s Medium (DMEM, Gibco-Invitrogen®), PC-3 and PNT-2 cells were grown in Roswell Park Memorial Institute Medium (RPMI-1640, Gibco-Invitrogen®). Both mediums were supplemented according to the needs of each lineage, as recommended by its cell banks with 2 mM L-glutamine (Gibco-Invitrogen®), 10% or 20% fetal bovine serum (Gibco-Invitrogen®), 1% antibiotic-antimycotic solution (5 mg/ml penicillin, 5 mg/ml streptomycin, and 10 mg/ml neomycin, Gibco-Invitrogen®), and 3.7 g/L of NaHCO3 (Sigma-Aldrich). All cell lines were cultured in flasks at 37°C in 5% CO2 and 96% of relative humidity according to the procedures proposed by ([31]), and a mycoplasma stain kit (Sigma-Aldrich) was used to confirm the use of cells devoid of contamination. The assays were conducted between the third and the seventh-cell passage with sub-cultures every 3 to 4 days to maintain exponential growth. The cell viability was checked using the trypan blue dye exclusion assay for all experiments where over 95% of the cells were viable at the beginning of the tests.
(§2) The in vitro antiproliferative activity was quantified using the Alamar blue® assay, according to the method reported by ([32]). Cells were seeded in 96-well plates for all experiments (1.5 × 10^4 cells/well). After 24 h, the complexes were dissolved in DMSO and added to each well and incubated for 24 h. Dilutions of the complexes were prepared to obtain concentrations ranging from 0.3 to 100 μM. […] DMSO (0.1% v/v) was used as the vehicle control. Following 24 h of incubation, 50 μl of Alamar blue® (resazurin at 0.01% w/v, Sigma-Aldrich) was added to each well, and the plates were incubated, at 37°C, in the dark. Fluorescence reading was performed in a Synergy H1 Fluorescence Spectrophotometer (BioTek®), using excitation and emission filters at wavelengths of 560 and 590 nm, respectively. The fluorescence intensity was measured in arbitrary fluorescence units (AFU) and the AFU of untreated cells (CTL) was considered 100%. The cytotoxic effects of the compounds were estimated in terms of cell proliferation inhibition (%) and expressed as half-maximal inhibitory concentration (IC50). The cell proliferation inhibition percentage of cells exposed to treatments was calculated following: % Inhibition = 100 − (AFU of treated well/AFU of control well) × 100). The IC50 values were calculated from the cell proliferation inhibition percentage by nonlinear regression method using CompusSyn® Software.

Data set [2] is described as follows: Partition coefficient (n-octanol/water), shake-flask method. Format: physicochemical. To be noted: 24 h, 37°C, triplicate. The method, then:
The octanol-water partition coefficients (log P) were quantified using the shake-flask method ([30]). Each complex was tested in a mixture of equal volumes of water and n-octanol with continuous shaking for 24 h at 112g and 37°C. Then the samples were centrifuged for 5 min at 10g, and the organic and aqueous phases were separated. The concentration of complex in each phase was measured spectrophotometrically to determine values of […]. The experiments were carried out in triplicate.

Data set [3] relates to Caco-2 (human colorectal adenocarcinoma). The data set can be described thus: Alamar blue cytotoxicity assay, Caco-2. Format: cell-based. To be noted: for IC50: Caco-2, Alamar blue, 24-h incubation, mean ± S.E.M.
Description: as §1, §2

The test system of data set [4] is MDA-MB-231 (human breast adenocarcinoma). As to the kind of experiment: Alamar blue cytotoxicity assay, MDA-MB-231. Type of data set: cell-based. To be noted: for IC50: MDA-MB-231, Alamar blue, 24-h incubation, mean ± S.E.M.
Description: as §1, §2

Data set [5] concerns A549 (human lung carcinoma). The data set can be described thus: Alamar blue cytotoxicity assay, A549. Type of data set: cell-based. To be noted: for IC50: A549, Alamar blue, 24-h incubation, mean ± S.E.M.
Description: as §1, §2

Setting [6] is: SI = IC50[FGH]/IC50[MDA-MB-231].
Setting [7] is: SI = IC50[PNT-2]/IC50[MDA-MB-231].

`CC(C)=CCC1=C([O-])C(=O)c2ccccc2C1=O.F[P-](F)(F)(F)(F)F.[Ru+2].c1ccc(P(CP(c2ccccc2)c2ccccc2)c2ccccc2)cc1.c1cnc2c(c1)ccc1cccnc12` [complex (2), [Ru(Lap)(dppm)(phen)]PF6]: the “population of apoptotic cells” value in the data set with DU-145 cells (DU-145, 0.25 μM) came to 11.8%; in the data set on DU-145 cells (DU-145, 0.5 μM), 22.7%; in the data set on DU-145 cells (DU-145, 1.0 μM), 41.4%; in the data set on DU-145 cells (DU-145, 1.5 μM) it was 70.2%. In the data set with DU-145 cells (apoptotic DU-145 cells, vs cisplatin 25 μM), the “fold lower concentration required for the same effect of cisplatin” value came to 100 fold. Also, the IC50 in data set [1] amounted to 1500 ± 200 nM; in data set [3], 1200 ± 300 nM; in data set [4] it was 2000 nM; in data set [5] it was 2600 ± 100 nM. Also, the “Selectivity index (SI)” value was 1.7 in data set [1] (SI = IC50[FGH]/IC50[HepG2]); 4.5 in data set [1] (SI = IC50[PNT-2]/IC50[HepG2]); 2.0 in data set [3] (SI = IC50[FGH]/IC50[Caco-2]); 5.7 in data set [3] (SI = IC50[PNT-2]/IC50[Caco-2]); 1.2 in data set [4] (setting [6]); 3.4 in data set [4] (setting [7]). The “Selectivity index (SI)” value in data set [5] (SI = IC50[FGH]/IC50[A549]) came out at 1.0; in data set [5] (SI = IC50[PNT-2]/IC50[A549]), 2.6. In addition, in data set [2], the “log P(o/w)” value was 0.839 ± 0.007.

On to `CC(C)=CCC1=C([O-])C(=O)c2ccccc2C1=O.F[P-](F)(F)(F)(F)F.[Ru+2].c1ccc(-c2ccccn2)nc1.c1ccc(P(CP(c2ccccc2)c2ccccc2)c2ccccc2)cc1` [complex (1), [Ru(Lap)(dppm)(bipy)]PF6], for which the IC50 was 1700 ± 500 nM in data set [1], 2000 ± 600 nM in data set [3], 2100 ± 400 nM in data set [4] and 3300 ± 400 nM in data set [5]. Moreover, the “Selectivity index (SI)” value in data set [1] (SI = IC50[FGH]/IC50[HepG2]) is recorded as 1.8; in data set [1] (SI = IC50[PNT-2]/IC50[HepG2]), 3.5; in data set [3] (SI = IC50[FGH]/IC50[Caco-2]) it was 1.5; in data set [3] (SI = IC50[PNT-2]/IC50[Caco-2]) it was 2.9; in data set [4] (setting [6]), 1.5; in data set [4] (setting [7]) it was 2.8. Moreover, the “Selectivity index (SI)” value was determined as 0.9 in data set [5] (SI = IC50[FGH]/IC50[A549]) and 1.8 in data set [5] (SI = IC50[PNT-2]/IC50[A549]). Further, the “log P(o/w)” value in data set [2] was determined as 0.617 ± 0.014.
